Measurements from patent US20230271928A1, “NAPHTHYLUREA COMPOUND, METHODS OF PREPARATION AND USE THEREOF” (Henan Radiomedical Science and Technology Co., Ltd., priority 2021, published 2023).

What was measured:
Assay type in all cases: cell-based
[1] = system: HepG2 cells; experiment: MTT proliferation assay, HepG2
Experimental: (§1) Difference cell lines HepG2, SMMC-7721, HuH-7, MCF-7, MDA-MB-231, MDA-MB-468, PC9, PC9-AR, PC9-GR, Jurkat and Molt-13 were harvested during log phase; the number of the cells in an original cell suspension was counted; the original cell suspension was diluted to a density of 5×10^4 cells/mL; for a 96-well plate, 100 uL of the cell suspension was transferred to each well; DMSO is used as solvent for negative control; (2E)-3-(6-bromo-2-pyridyl)-2-cyano-N-[(1S)-1-phenylethyl]-2-acrylamide (WP1066CAS: 857064-38-1, with a formula
(§2) or gefitinib was used as a positive control; the naphthylurea compound ID1120B-1 and the phosphate ID1120B-P thereof were diluted with DMSO and added into the 96-well plate to achieve a final concentration of 0.1, 0.3, 1, 3, 10, 30, 100 and 300 μmol/L in each well; the 96-well plate was incubated for 48 h; 10 μL of MTT solvent (5 mg/mL) was added into each well; the 96-well plate was incubated at 37° C. for 4 h; a culture supernatant was discarded; 150 μL of DMSO was added into each well; the 96-well plate was shaken for 10 min on a plate shaker; an optical density (OD) of the resulting product was measured at a wavelength of 490 nm by an ELISA reader. Test results were recorded. A cell growth curve was drawn with the dosage of each compound as abscissa and the absorbance value as ordinate. The half maximum inhibition rates (IC50 value) of the cancer cells were shown in Table 1, FIGS. 1A-1J and FIGS. 2A-2J.

[2] = system: Jurkat cells; experiment: MTT proliferation assay, Jurkat; settings: 48 h
Experimental: as §1, §2

[3] = system: SMMC-7721 cells; experiment: MTT proliferation assay, SMMC-7721; settings: Homo sapiens; SMMC-7721, MTT, 48 h
Experimental: as §1, §2

[4] = system: HuH-7 cells; experiment: MTT proliferation assay, HuH-7; settings: Homo sapiens; HuH-7, MTT, 48 h
Experimental: as §1, §2

[5] = system: PC9GR cells; experiment: MTT proliferation assay, PC9GR; settings: 48 h
Experimental: (§3) Test results were recorded. A cell growth curve was drawn with the dosage of each compound as abscissa and the absorbance value as ordinate.

[6] = system: MOLT-13 cells; experiment: MTT proliferation assay, MOLT-13; settings: MOLT-13, MTT
Experimental: as §1, §2

[7] = system: PC9 cells; experiment: MTT proliferation assay, PC9; settings: Homo sapiens, PC-9, 48 h
Experimental: as §3

[8] = system: HepG2 cells; experiment: Cell cycle analysis by PI flow cytometry; settings: HepG2, 48 h; for induction of cells in the G2/M phase / percentage of cells in the G1/S phase: compared with negative control (DMSO); for length of the G2 phase, % of the cell cycle, after treatment: value reached after treatment (increase from DMSO control value)
Experimental: HepG2 cells were harvested during log phase, digested, centrifuged and prepared into a single cell suspension; the number of the cells in the single cell suspension was counted; the cells were seeded into a 12-well plate, with 2×10^5 cells per well; three wells were used as a parallel control design; 16 hours after seeding, the cells were treated with the compounds in a concentration gradient for 48 h; the cells were digested with trypsin and resuspended; the number of the cells in the cell suspension was counted and diluted to 5×10^5 cells/mL; after the digestion was completed, the cell suspension was centrifuged; the supernatant was discarded; the pellet was washed twice with PBS (each time the mixture was centrifuged 2000 rpm for 5 min); the supernatant was discarded; a fixative comprising 980 μL of 70% cold ethanol and 20 μL of 5% BSA (a small amount of BSA reduces cellular stress and damage) was added to each microcentrifuge tube, so that the cells were fixed overnight at 4° C.; the fixative is discarded; the cells were washed three times in PBS to remove residual fixative (each time the mixture was centrifuged at 1000 rpm for 3 min); a DNA quantification kit is used to measure the content of DNA according to the following instruction (Suo Laibao, Beijing): each sample was incubated in 100 μL of RNase A at 37° C. for 30 min; 500 μL of PI (propidium iodide) was added to each sample; each sample was incubated at room temperature for 30 min in the dark; the cell cycle was analyzed by a flow cytometry and a ModFit software; and Graphpad prism 6.0 was used to estimate the percentage of a cell population in the different phases of the cell cycle.

[9] = system: MDA-MB-231 cells; experiment: MTT proliferation assay, MDA-MB-231; settings: Homo sapiens; MDA-MB-231, MTT, 48 h
Experimental: as §3

[10] = system: MDA-MB-468 cells; experiment: MTT proliferation assay, MDA-MB-468; settings: Homo sapiens, MDA-MB-468, 48 h, MDA-MB-468, MTT
Experimental: as §3

[11] = system: PC9AR cells; experiment: MTT proliferation assay, PC9AR; settings: 48 h
Experimental: as §3

[12] = system: MCF-7 cells; experiment: MTT proliferation assay, MCF-7; settings: Homo sapiens, MCF7; MCF-7, MTT, 48 h; read-out: IC50
Experimental: as §3

[13] = system: HepG2 liver cancer cells; experiment: Annexin V-FITC/PI apoptosis flow cytometry; settings: HepG2, 48 h; for induction of apoptosis: compared with the control group
Experimental: The HepG2 cells were harvested during log phase, digested, centrifuged and prepared into a single cell suspension; the number of the cells in the cell suspension was counted; the cells were seeded into a 12-well plate, with 2×10^5 cells per well; three wells were used as a parallel control design; 16 hours after seeding, the cells were treated with the compounds in a concentration gradient for 48 h; the cells were digested with EDTA-free trypsin and resuspended; the number of the cells in the cell suspension was counted and diluted to 1×10^6 cells/mL; an annexin V apoptosis detection kit was used according to the following instruction (Suo Laibao, Beijing): the cells were washed twice with 1×PBS (each time the mixture was centrifuged at 6000 rpm for 0.5 min), washed once with 1×Binding buffer (and the mixture was centrifuged at 6000 rpm for 0.5 min); the supernatant was discarded; the cells were resuspended with 300 μL of 1×Binding buffer; 5 μL of Annexin V-FITC was added into each tube, and incubated in the dark for 10 min; 5 μL of PI was added into each tube and incubated in the dark for 5 min; and each tube was then inspected on a machine in the dark.

[14] = system: Cyclin B1 (gene name: CCNB1); experiment: qPCR of mRNA expression, CCNB1; settings: HepG2, 10 μM, 24 h, normalised to β-actin
Experimental: (§4) HepG2 liver cancer cells were seeded in a 6-well plate, with 1×10^6 cells per well, and treated with the compound IY1214B-2 (in 0 and 10 μM concentrations) for 24 h; total RNA was extracted from the HepG2 liver cancer cells by a single-step TRIzol method; the concentration and purity of the total RNA was measured; the total RNA was used as a template; and complementary DNA (cDNA) was synthesized from the RNA template according to the instruction of a reverse transcription kit (Promega); sqRT-PCR and qPCR were used to quantify the expression of the genes CCNB1, CDK1 and SQSTM; and the gene ACTB was used as an internal reference gene for gene expression normalization.
(§5) A 20 μL reaction mix for qPCR contained:
(§6) Cycling conditions comprised:
(§7) After 40 cycles, the cycle threaded (CT) value of the β-actin gene was used as an initial value in comparison with the amount of the amplified product.

[15] = system: p62 (gene name: SQSTM); experiment: qPCR of mRNA expression, SQSTM; settings: HepG2, 10 μM, 24 h, normalised to β-actin
Experimental: as §4, §5, §6, §7

[16] = system: CDC2 (gene name: CDK1); experiment: qPCR of mRNA expression, CDK1; settings: HepG2, 10 μM, 24 h, normalised to β-actin
Experimental: as §4, §5, §6, §7

[17] = concentration of 8 μL (so in the source)

IC50 ([2]; Homo sapiens) [µM] | IC50 [3] [µM] | IC50 [4] [µM] | IC50 [5] [µM] | IC50 ([6]; Homo sapiens, MOLT-13, 48 h) [µM] | IC50 [7] [µM] | IC50 [9] [µM] | IC50 [10] [µM] | IC50 [11] [µM] | IC50 ([1]; Homo sapiens, HepG2, 48 h) [µM] | IC50 [12] [µM] | SMILES | induction of cells in the G2/M phase [8] | percentage of cells in the G1/S phase [8] | length of the G2 phase, % of the cell cycle, after treatment [8] [%] | induction of apoptosis [13] | other results
3.23 | 3.51 | 3.15 | 32.3 | 10.8 | 14.1 | 17.5 | 4.92 | 8 | – | – | O=C(NCc1ccccc1)Nc1ccc(OCc2ccc(OCCN3CCCCC3)cc2)c2ccccc12 [ID1120B-1, 1-benzyl-3-(4-((4-(2-(piperidin-1-yl)ethoxy)benzyl)oxy)naphthalen-1-yl)urea] | dramatically induce the liver cancer cells in the G2/M phase in a dose-dependent manner | significantly decrease the percentage of the liver cancer cells in the G1/S phase | – | – | IC50 ([1]; 48 h): 1.68 µM
– | – | – | – | – | – | – | – | – | 2.37 | – | O=C(NCc1ccccc1)Nc1ccc(OCc2ccc(OCCN3CCCCC3)cc2)c2ccccc12 [ID1120B-P, 1-benzyl-3-(4-((4-(2-(piperidin-1-yl)ethoxy)benzyl)oxy)naphthalen-1-yl)urea phosphate] | – | – | – | – | IC50 ([2]; phosphate): 4.74 µM; IC50 ([6]; 48 h, phosphate): 9.79 µM
– | 3.57 | 2.76 | – | – | – | 2.11 | – | – | 1.85 | 3.54 | COc1ccc(NC(=O)Nc2ccc(OCc3ccc(OCCN4CCCCC4)cc3)c3ccccc23)cc1 [IY1214A-1] | dramatically induce the liver cancer cells in the G2/M phase in a dose-dependent manner | significantly decrease the percentage of the liver cancer cells in the G1/S phase | 34.54 | induce apoptosis in the HepG2 liver cancer cells in a dose-dependent manner | apoptosis rate ([13]; 4 μM): 57.7%; apoptosis rate, times higher than that of untreated wells ([13]; 4 μM and 8 μM): more than 2 times; apoptosis rate ([13]; 8 μM): 63%
– | 31.4 | 23.1 | – | – | – | – | 3.85 | – | 3.85 | – | O=C(Nc1ccc(OC(F)(F)F)cc1)Nc1ccc(OCc2ccc(OCCN3CCCCC3)cc2)c2ccccc12 [IY1214B-2] | dramatically induce the liver cancer cells in the G2/M phase in a dose-dependent manner | significantly decrease the percentage of the liver cancer cells in the G1/S phase | 21.71 | induce apoptosis in the HepG2 liver cancer cells in a dose-dependent manner | CCNB1 mRNA level down-regulated by [14]: 20-25%; SQSTM (p62) expression level up-regulated by [15]: 2.5 times; apoptosis rate [13, 17]: 47.1%; apoptosis rate, times higher than that of untreated wells [13, 17]: 3.3 times; CDK1 mRNA level down-regulated by [16]: 20-25%
10 | 11.9 | 8.11 | 14.7 | 17.1 | 9.26 | 10.2 | 13.2 | 8.49 | 9.21 | 18 | C[C@H](NC(=O)/C(C#N)=C/c1cccc(Br)n1)c1ccccc1 [WP1066, (2E)-3-(6-bromo-2-pyridyl)-2-cyano-N-[(1S)-1-phenylethyl]-2-acrylamide, reference compound] | – | – | – | – | –
